Data: PMC8117066 (Behavioural brain research, 2021)
Numbering of substitutions follows the chain as printed. Names and notes keep the numbering of the source.

Key:
[1] = molecular target: Dopamine transporter (DAT) (Mus musculus, UniProt Q61327, T53A); assay: inhibition of [3H]DA uptake in mouse striatal synaptosomes; type: biochemical
[2] = molecular target: Dopamine transporter (DAT) (Mus musculus, UniProt Q61327); assay: as above; type: biochemical
[3H]DA uptake kinetics = substrate: NCCc1ccc(O)c(O)c1; assay: [3H]DA uptake kinetics; type: biochemical, Mus musculus

Sequence of Dopamine transporter (DAT) (Mus musculus, UniProt Q61327, T53A) (Q61327 whole entry T53A): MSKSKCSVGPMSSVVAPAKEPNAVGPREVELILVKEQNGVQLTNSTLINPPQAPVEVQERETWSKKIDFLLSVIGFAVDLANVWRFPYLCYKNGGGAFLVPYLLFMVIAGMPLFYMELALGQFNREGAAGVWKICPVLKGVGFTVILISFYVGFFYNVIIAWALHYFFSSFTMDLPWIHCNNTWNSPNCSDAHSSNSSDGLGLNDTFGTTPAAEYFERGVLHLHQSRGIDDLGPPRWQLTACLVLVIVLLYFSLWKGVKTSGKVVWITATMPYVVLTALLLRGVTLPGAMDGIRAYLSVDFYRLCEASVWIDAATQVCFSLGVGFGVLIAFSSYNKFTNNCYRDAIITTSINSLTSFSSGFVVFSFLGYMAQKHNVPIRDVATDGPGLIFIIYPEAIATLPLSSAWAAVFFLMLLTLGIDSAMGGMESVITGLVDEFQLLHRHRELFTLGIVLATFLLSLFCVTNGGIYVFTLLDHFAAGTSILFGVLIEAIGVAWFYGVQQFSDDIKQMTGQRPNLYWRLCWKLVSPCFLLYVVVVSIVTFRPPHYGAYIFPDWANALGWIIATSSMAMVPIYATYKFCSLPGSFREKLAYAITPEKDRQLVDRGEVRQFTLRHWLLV

COC(=O)[C@H]1[C@@H](OC(=O)c2ccccc2)C[C@@H]2CC[C@H]1N2C [cocaine]
IC50 [1]: 1270 ± 348 nM
IC50 [2]: 268 ± 58 nM

CN[C@@H](C)Cc1ccccc1 [METH]
IC50 [1]: 262 ± 25 nM
IC50 [2]: 280 ± 40 nM

CC(N)Cc1ccccc1 (centres unmarked) [amphetamine]
IC50 [1]: 198 ± 68 nM
IC50 [2]: 183 ± 23 nM

B1: Dopamine transporter (DAT) (Mus musculus) (protein)
chain: MSKSKCSVGPMSSVVAPAKEPNAVGPREVELILVKEQNGVQLTNSTLINPPQTPVEVQERETWSKKIDFLLSVIGFAVDLANVWRFPYLCYKNGGGAFLVPYLLFMVIAGMPLFYMELALGQFNREGAAGVWKICPVLKGVGFTVILISFYVGFFYNVIIAWALHYFFSSFTMDLPWIHCNNTWNSPNCSDAHSSNSSDGLGLNDTFGTTPAAEYFERGVLHLHQSRGIDDLGPPRWQLTACLVLVIVLLYFSLWKGVKTSGKVVWITATMPYVVLTALLLRGVTLPGAMDGIRAYLSVDFYRLCEASVWIDAATQVCFSLGVGFGVLIAFSSYNKFTNNCYRDAIITTSINSLTSFSSGFVVFSFLGYMAQKHNVPIRDVATDGPGLIFIIYPEAIATLPLSSAWAAVFFLMLLTLGIDSAMGGMESVITGLVDEFQLLHRHRELFTLGIVLATFLLSLFCVTNGGIYVFTLLDHFAAGTSILFGVLIEAIGVAWFYGVQQFSDDIKQMTGQRPNLYWRLCWKLVSPCFLLYVVVVSIVTFRPPHYGAYIFPDWANALGWIIATSSMAMVPIYATYKFCSLPGSFREKLAYAITPEKDRQLVDRGEVRQFTLRHWLLV
Km ([3H]DA uptake kinetics): 0.0778 ± 0.003009 µM

B2: Dopamine transporter (DAT) (Mus musculus; T53A) (protein)
chain: B1 chain with T53A
Km ([3H]DA uptake kinetics): 0.07117 ± 0.006766 µM
